This series relates to CCRIS mutagenicity, Ames/micronucleus/aberration tests. Kind of series: CCRIS mutagenicity studies.
The mark [1] stands for this setting: Test System: AMES SALMONELLA TYPHIMURIUM, Strain/Indicator: TA97, Metabolic Activation: NONE, Method: PREINCUBATION
Where [2] appears, read: Test System: AMES SALMONELLA TYPHIMURIUM, Strain/Indicator: TA98, Metabolic Activation: NONE, Method: PREINCUBATION
The mark [3] stands for this setting: Test System: AMES SALMONELLA TYPHIMURIUM, Strain/Indicator: TA100, Metabolic Activation: NONE, Method: PREINCUBATION
[4] abbreviates: Test System: AMES SALMONELLA TYPHIMURIUM, Strain/Indicator: TA102, Metabolic Activation: NONE, Method: PREINCUBATION
Where [5] appears, read: Test System: AMES SALMONELLA TYPHIMURIUM, Strain/Indicator: TA98, Metabolic Activation: NONE, Method: STANDARD PLATE.
The mark [6] stands for this setting: Test System: AMES SALMONELLA TYPHIMURIUM, Strain/Indicator: TA98, Metabolic Activation: RAT, LIVER, S-9, AROCLOR 1254, Method: STANDARD PLATE.
Where [7] appears, read: Test System: AMES SALMONELLA TYPHIMURIUM, Strain/Indicator: TA100, Metabolic Activation: NONE, Method: STANDARD PLATE.
[8] abbreviates: Test System: AMES SALMONELLA TYPHIMURIUM, Strain/Indicator: TA100, Metabolic Activation: RAT, LIVER, S-9, AROCLOR 1254, Method: STANDARD PLATE.
Where [9] appears, read: Test System: AMES SALMONELLA TYPHIMURIUM, Strain/Indicator: TA1535, Metabolic Activation: NONE, Method: STANDARD PLATE.
The mark [10] stands for this setting: Test System: AMES SALMONELLA TYPHIMURIUM, Strain/Indicator: TA1535, Metabolic Activation: RAT, LIVER, S-9, AROCLOR 1254, Method: STANDARD PLATE.
Where [11] appears, read: Test System: AMES SALMONELLA TYPHIMURIUM, Strain/Indicator: TA1537, Metabolic Activation: NONE, Method: STANDARD PLATE.
Setting [12] is: Test System: AMES SALMONELLA TYPHIMURIUM, Strain/Indicator: TA1537, Metabolic Activation: RAT, LIVER, S-9, AROCLOR 1254, Method: STANDARD PLATE.
The mark [13] stands for this setting: Test System: AMES SALMONELLA TYPHIMURIUM, Strain/Indicator: TA1538, Metabolic Activation: NONE, Method: STANDARD PLATE.
[14] abbreviates: Test System: AMES SALMONELLA TYPHIMURIUM, Strain/Indicator: TA1538, Metabolic Activation: RAT, LIVER, S-9, AROCLOR 1254, Method: STANDARD PLATE.
[15] abbreviates: Test System: Mouse lymphoma, Strain/Indicator: L5178Y (tk+/tk-), Metabolic Activation: None, Method: Suspension/plate.

Structures are written as SMILES. The source made the active and inactive calls. How the calls were made is not given here.

As for `C=C1C[C@@]23CC[C@H]4[C@@](C)(CCC[C@@]4(C)C(=O)O)[C@@H]2CC[C@]1(O)C3`, the mutagenic call is “inactive; negative” under setting [1]; “inactive; negative” (Test System: AMES SALMONELLA TYPHIMURIUM, Strain/Indicator: TA97, Metabolic Activation: RAT, LIVER, S-9, PCB, Method: PREINCUBATION); “inactive; negative” under setting [2]; “inactive; negative” (Test System: AMES SALMONELLA TYPHIMURIUM, Strain/Indicator: TA98, Metabolic Activation: RAT, LIVER, S-9, PCB, Method: PREINCUBATION); “inactive; negative” (Test System: AMES SALMONELLA TYPHIMURIUM, Strain/Indicator: TA98, Metabolic Activation: RAT, LIVER, S-9, SODIUM PHENOBARBITAL AND 5,6-BENZOFLAVONE, Method: PREINCUBATION); “inactive; negative” under setting [3]. Moreover, the mutagenic call runs as follows: (Test System: AMES SALMONELLA TYPHIMURIUM, Strain/Indicator: TA100, Metabolic Activation: RAT, LIVER, S-9, PCB, Method: PREINCUBATION) “inactive; negative”; (Test System: AMES SALMONELLA TYPHIMURIUM, Strain/Indicator: TA100, Metabolic Activation: RAT, LIVER, S-9, SODIUM PHENOBARBITAL AND 5,6-BENZOFLAVONE, Method: PREINCUBATION) “inactive; negative”; under setting [4], “inactive; negative”; (Test System: AMES SALMONELLA TYPHIMURIUM, Strain/Indicator: TA102, Metabolic Activation: RAT, LIVER, S-9, PCB, Method: PREINCUBATION) “inactive; negative”; (Test System: AMES SALMONELLA TYPHIMURIUM, Strain/Indicator: TA104, Metabolic Activation: NONE, Method: PREINCUBATION) “inactive; negative”; (Test System: AMES SALMONELLA TYPHIMURIUM, Strain/Indicator: TA104, Metabolic Activation: RAT, LIVER, S-9, PCB, Method: PREINCUBATION) “inactive; negative”. Besides, the mutagenic call (Test System: AMES SALMONELLA TYPHIMURIUM, Strain/Indicator: TM677, Metabolic Activation: NONE, Method: PREINCUBATION) is “inactive; negative”; the mutagenic call (Test System: AMES SALMONELLA TYPHIMURIUM, Strain/Indicator: TM677, Metabolic Activation: RAT, LIVER, MICROSOMES, AROCLOR 1254, Method: SUSPENSION/PLATE) is “active; positive”; the mutagenic call (Test System: AMES SALMONELLA TYPHIMURIUM, Strain/Indicator: TM677, Metabolic Activation: RAT, LIVER, S-9, AROCLOR 1254, Method: PREINCUBATION) is “active; positive”; the mutagenic call (Test System: AMES SALMONELLA TYPHIMURIUM, Strain/Indicator: TM677, Metabolic Activation: RAT, LIVER, S-9, AROCLOR 1254, Method: SUSPENSION/PLATE) was “active; positive”.

As to `Cc1cc(N)cc(C)c1N`, the mutagenic call runs as follows: under setting [5], “inactive; negative”; under setting [6], “inactive; negative”; under setting [7], “inactive; negative”; under setting [8], “inactive; negative”; under setting [9], “inactive; negative”; under setting [10], “inactive; negative”. For the same compound, the mutagenic call by setting is: under setting [11], “inactive; negative”; under setting [12], “inactive; negative”; under setting [13], “inactive; negative”; under setting [14], “inactive; negative”.

In the case of `NCC(=O)O`, the mutagenic call is, setting by setting: under setting [1], “inactive; negative”; (Test System: AMES SALMONELLA TYPHIMURIUM, Strain/Indicator: TA97, Metabolic Activation: RAT, LIVER, S-9, AROCLOR 1254, Method: PREINCUBATION) “inactive; negative”; (Test System: AMES SALMONELLA TYPHIMURIUM, Strain/Indicator: TA98, Metabolic Activation: HAMSTER, LIVER, S-9, AROCLOR 1254, Method: PREINCUBATION) “inactive; negative”; under setting [2], “inactive; negative”; under setting [5], “inactive; negative”; (Test System: AMES SALMONELLA TYPHIMURIUM, Strain/Indicator: TA98, Metabolic Activation: RAT, LIVER, S-9, AROCLOR 1254, Method: PREINCUBATION) “inactive; negative”. Besides, the mutagenic call is, setting by setting: under setting [6], “inactive; negative”; (Test System: AMES SALMONELLA TYPHIMURIUM, Strain/Indicator: TA100, Metabolic Activation: HAMSTER, LIVER, S-9, AROCLOR 1254, Method: PREINCUBATION) “inactive; negative”; under setting [3], “inactive; negative”; under setting [7], “inactive; negative”; (Test System: AMES SALMONELLA TYPHIMURIUM, Strain/Indicator: TA100, Metabolic Activation: RAT, LIVER, S-9, AROCLOR 1254, Method: PREINCUBATION) “inactive; negative”; under setting [8], “inactive; negative”. The mutagenic call was “inactive; negative” under setting [4]; “inactive; negative” (Test System: AMES SALMONELLA TYPHIMURIUM, Strain/Indicator: TA102, Metabolic Activation: RAT, LIVER, S-9, AROCLOR 1254, Method: PREINCUBATION); “inactive; negative” (Test System: AMES SALMONELLA TYPHIMURIUM, Strain/Indicator: TA1535, Metabolic Activation: HAMSTER, LIVER, S-9, AROCLOR 1254, Method: PREINCUBATION); “inactive; negative” (Test System: AMES SALMONELLA TYPHIMURIUM, Strain/Indicator: TA1535, Metabolic Activation: NONE, Method: PREINCUBATION); “inactive; negative” under setting [9]; “inactive; negative” (Test System: AMES SALMONELLA TYPHIMURIUM, Strain/Indicator: TA1535, Metabolic Activation: RAT, LIVER, S-9, AROCLOR 1254, Method: PREINCUBATION). The mutagenic call is “inactive; negative” under setting [10]; “inactive; negative” (Test System: AMES SALMONELLA TYPHIMURIUM, Strain/Indicator: TA1537, Metabolic Activation: HAMSTER, LIVER, S-9, AROCLOR 1254, Method: PREINCUBATION); “inactive; negative” (Test System: AMES SALMONELLA TYPHIMURIUM, Strain/Indicator: TA1537, Metabolic Activation: NONE, Method: PREINCUBATION); “inactive; negative” under setting [11]; “inactive; negative” (Test System: AMES SALMONELLA TYPHIMURIUM, Strain/Indicator: TA1537, Metabolic Activation: RAT, LIVER, S-9, AROCLOR 1254, Method: PREINCUBATION); “inactive; negative” under setting [12]. Also, the mutagenic call by setting is: under setting [13], “inactive; negative”; under setting [14], “inactive; negative”; (Test System: MOUSE LYMPHOMA, Strain/Indicator: L5178Y (TK+/TK-), Metabolic Activation: NONE) “inactive; negative”; (Test System: MOUSE LYMPHOMA, Strain/Indicator: L5178Y (TK+/TK-), Metabolic Activation: RAT, LIVER, S-9, AROCLOR 1254) “inactive; negative”; (Test System: MOUSE LYMPHOMA, Strain/Indicator: L5178Y (TK+/TK-), Metabolic Activation: RAT, LIVER, S-9, AROCLOR 1254, Method: SUSPENSION/PLATE) “inactive; negative. reevaluation of results: inconclusive”; under setting [15], “active; inconclusive (previous evaluation positive)”. In addition, where the note is “Test System: UDS RAT PRIMARY HEPATOCYTES, Metabolic Activation: NONE”, the mutagenic call was “inactive; negative”.

With `CCC1(O)C(=O)OCc2c1cc1n(c2=O)Cc2cc3c(N)cccc3nc2-1` (centres undefined), the mutagenic call by setting is: under setting [15], “active; positive”; (Test System: Mouse lymphoma, Strain/Indicator: L5178Y (tk+/tk-), Metabolic Activation: Rat, Liver, S-9, Aroclor 1254, Method: Suspension/plate) “active; positive”.

For the origin of these results see PubChem BioAssay AID1259407 (Chemical Carcinogenesis Research Information System (CCRIS), 2018).
